Data from patent US8431706B2, “1,2,3,4-tetrahydroqinoline derivative useful for the treatment of diabetes” (Eli Lilly and Company, priority 2011, dated 2013).

Assays:
PPARγ = target: T1, PPARγ (Homo sapiens, UniProt P37231); experiment: PPARγ binding assay (SPA); set-up: made in house; host or cells: HEK293 (cell lysates)
T1 sequence (P37231 1-505): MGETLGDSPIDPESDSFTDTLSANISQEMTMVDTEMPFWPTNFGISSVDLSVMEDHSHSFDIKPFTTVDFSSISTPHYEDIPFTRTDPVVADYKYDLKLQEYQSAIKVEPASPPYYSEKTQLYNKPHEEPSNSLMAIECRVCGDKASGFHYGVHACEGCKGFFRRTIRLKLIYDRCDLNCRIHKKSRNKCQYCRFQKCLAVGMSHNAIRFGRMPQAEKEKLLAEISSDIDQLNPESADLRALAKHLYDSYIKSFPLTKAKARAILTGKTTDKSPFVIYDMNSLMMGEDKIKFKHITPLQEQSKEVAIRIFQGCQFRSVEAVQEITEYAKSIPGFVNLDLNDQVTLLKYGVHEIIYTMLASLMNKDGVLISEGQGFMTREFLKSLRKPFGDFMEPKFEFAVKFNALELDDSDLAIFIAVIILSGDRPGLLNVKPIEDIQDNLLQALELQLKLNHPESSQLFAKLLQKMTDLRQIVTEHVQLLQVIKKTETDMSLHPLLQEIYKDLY
T1 sequence (P19793 1-462 partner): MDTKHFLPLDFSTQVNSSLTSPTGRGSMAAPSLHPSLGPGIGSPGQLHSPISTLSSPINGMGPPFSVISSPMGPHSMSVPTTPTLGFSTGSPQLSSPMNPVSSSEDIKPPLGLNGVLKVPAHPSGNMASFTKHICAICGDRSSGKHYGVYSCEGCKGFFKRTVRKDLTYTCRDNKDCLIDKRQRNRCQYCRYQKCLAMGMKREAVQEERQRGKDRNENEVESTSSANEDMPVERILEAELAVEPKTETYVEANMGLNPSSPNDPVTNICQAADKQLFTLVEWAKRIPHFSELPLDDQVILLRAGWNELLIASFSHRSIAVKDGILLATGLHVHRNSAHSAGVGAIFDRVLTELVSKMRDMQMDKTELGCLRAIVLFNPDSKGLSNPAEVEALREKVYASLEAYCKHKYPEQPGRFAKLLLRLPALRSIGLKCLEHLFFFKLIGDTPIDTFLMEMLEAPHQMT
Procedure: (§1) Because GPR40 is known to be activated by ligands to PPARγ, the exemplified compound is examined in PPARα, PPARδ, and PPARγ binding and functional assays to determine the selectivity of the compound of Example 1 for GPR40.
(§2) Binding affinities of the compound for the PPAR α, δ, and γ receptors are assessed using Scintillation Proximity Assay (SPA) technology. Biotinylated oligonucleotide Direct Repeat 2 (DR2) is used for binding the receptors to Yttrium silicate streptavidin-coated SPA beads. PPAR α, δ, γ and retinoid X receptor (RXR) α are over expressed in HEK293 cells, and cell lysates containing the specific receptors are used in the individual assays. The DR2 is attached to the SPA beads over a 30 minute period in a binding buffer containing 10 mM HEPES pH 7.8, 80 mM KCl, 0.5 mM MgCl2, 1 mM DTT, 0.5% 3[(3-cholamidopropyl)dimethylammonio]-propanesulfonic acid (CHAPS), and 4.4% bovine serum. […] Non-specific binding is determined in the presence of 10,000 nM of the unlabeled PPAR α/δ dual agonist reference compound for the alpha and delta receptor assays and the PPARγ agonist reference compound for the gamma receptor assay. The binding reaction (100 μl per well in a 96 well [Costar 3632] plate) is incubated for 10 h and counted disintegration per minutes (dpm) on a Wallac Microbeta. Receptor binding affinity (IC50) for the compound is determined by fitting an 11 point concentration-response curve with a 4-parameter logistic equation. Ki is determined from the IC50 using the Cheng-Prussoff equation and Kd determined by saturation binding. […]

PPARα = target: T2, PPARα (Homo sapiens, UniProt Q07869); experiment: PPARα binding assay (SPA)
T2 construct: made in house; host or cells: HEK293 (cell lysates)
T2 sequence (Q07869 1-468): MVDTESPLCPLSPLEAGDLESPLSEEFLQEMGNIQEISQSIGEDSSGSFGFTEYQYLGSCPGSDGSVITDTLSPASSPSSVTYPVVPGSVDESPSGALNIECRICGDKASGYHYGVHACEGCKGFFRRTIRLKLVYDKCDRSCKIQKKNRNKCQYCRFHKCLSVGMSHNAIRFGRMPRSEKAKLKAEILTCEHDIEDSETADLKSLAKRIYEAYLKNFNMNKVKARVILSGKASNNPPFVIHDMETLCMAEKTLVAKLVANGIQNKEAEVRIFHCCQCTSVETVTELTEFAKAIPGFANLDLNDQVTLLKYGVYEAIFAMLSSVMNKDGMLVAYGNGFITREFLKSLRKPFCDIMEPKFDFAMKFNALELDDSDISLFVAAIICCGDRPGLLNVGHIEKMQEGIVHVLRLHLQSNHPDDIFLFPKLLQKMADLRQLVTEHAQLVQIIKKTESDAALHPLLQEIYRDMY
T2 sequence (P19793 1-462 partner): T1 sequence (P19793 1-462 partner)
Procedure: as §1, §2

[1] = tested up to 30 μM, read-out: relative IC50
[2] = with 10 μM concentrations of test compound

Compound: CC#C[C@@H](CC(=O)O)c1ccc(OCc2ccc(CN3CCCc4cccc(OC)c43)s2)cc1 [Example 1, (3S)-3-[4-[[5-[(8-Methoxy-3,4-dihydro-2H-quinolin-1-yl)methyl]-2-thienyl]methoxy]phenyl]hex-4-ynoic acid]
- binding (PPARγ; concentrations up to 10 μM): no binding is detected
- IC50 (PPARγ; [1]): > 10 µM
- PPAR binding values (PPARγ; [2]): greater than 1000 nM
- binding (PPARα; concentrations up to 10 μM): no binding is detected
- IC50 (PPARα; [1]): > 10 µM
- PPAR binding values (PPARα; [2]): greater than 1000 nM
